Results: ChEMBL document CHEMBL5576145, “Domoic Acid as a Lead for the Discovery of the First Selective Ligand for Kainate Receptor Subtype 5 (GluK5)” (J Med Chem, 2024)

Legend:
[1] = Displacement of [3H]-Kainic acid from KA in rat brain membrane preincubated for 15 mins followed by [3H]-Kainic acid addition and measured after 1 hr by scintillation counting method; type: cell membranes
Glutamate receptor 4 [2] = target: T1, Glutamate receptor 4 (Rattus norvegicus, UniProt P19493); experiment: Displacement of [3H]-AMPA from AMPA in rat brain membrane preincubated for 15 mins followed by [3H]-AMPA addition and measured after 40 mins by scintillation counting method; type: cell membranes
[3] = Displacement of [3H]-Kainic acid from KA in rat synaptic membrane; type: subcellular, Synaptosome
Glutamate receptor 4 [4] = target: T1, Glutamate receptor 4; experiment: Displacement of [3H]-AMPA from AMPA in rat synaptic membrane; type: subcellular, Synaptosome
[5] = target: Glutamate receptor ionotropic, kainate 2 (Rattus norvegicus) (UniProt P42260); experiment: Displacement of [3H]-KA from rat GluK2 assessed as percentage of radioligand binding at 10 uM relative to control
[6] = target: T2, Glutamate receptor ionotropic, kainate 5 (Mus musculus, UniProt Q61626); experiment: Displacement of [3H]-kainate from mouse GluK5 expressed in Sf9 cell membrane incubated for 2 hrs by scintillation counting method; type: cell membranes
T2 sequence (Q61626 whole entry): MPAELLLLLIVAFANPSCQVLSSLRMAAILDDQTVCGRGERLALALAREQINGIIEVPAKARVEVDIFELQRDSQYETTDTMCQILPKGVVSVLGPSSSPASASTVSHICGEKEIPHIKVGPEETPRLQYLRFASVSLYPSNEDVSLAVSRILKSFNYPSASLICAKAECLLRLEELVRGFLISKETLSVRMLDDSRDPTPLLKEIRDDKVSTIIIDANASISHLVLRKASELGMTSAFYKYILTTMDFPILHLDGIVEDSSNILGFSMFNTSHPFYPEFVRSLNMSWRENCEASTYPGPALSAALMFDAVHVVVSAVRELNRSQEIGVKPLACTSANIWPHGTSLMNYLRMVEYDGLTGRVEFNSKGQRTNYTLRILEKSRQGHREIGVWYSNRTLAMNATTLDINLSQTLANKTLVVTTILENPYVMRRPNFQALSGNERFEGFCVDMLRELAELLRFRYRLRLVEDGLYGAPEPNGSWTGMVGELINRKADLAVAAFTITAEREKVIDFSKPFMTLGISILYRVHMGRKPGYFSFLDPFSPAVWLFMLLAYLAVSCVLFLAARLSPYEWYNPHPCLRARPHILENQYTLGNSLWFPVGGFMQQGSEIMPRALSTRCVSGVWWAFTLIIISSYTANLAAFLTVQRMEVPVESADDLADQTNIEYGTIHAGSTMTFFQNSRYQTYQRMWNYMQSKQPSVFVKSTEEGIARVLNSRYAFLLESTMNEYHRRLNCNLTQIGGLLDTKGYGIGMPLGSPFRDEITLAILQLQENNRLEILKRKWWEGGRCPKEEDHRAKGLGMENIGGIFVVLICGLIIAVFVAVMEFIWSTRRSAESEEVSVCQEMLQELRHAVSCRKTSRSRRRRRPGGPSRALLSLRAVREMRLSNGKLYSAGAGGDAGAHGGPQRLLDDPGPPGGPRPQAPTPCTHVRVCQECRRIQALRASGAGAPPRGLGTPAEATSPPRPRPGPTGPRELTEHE

[7] = target: Glutamate receptor ionotropic, kainate 3 (Rattus norvegicus) (UniProt P42264); experiment: Displacement of [3H]-KA from rat GluK3 assessed as percentage of radioligand binding at 10 uM relative to control
[8] = target: Glutamate receptor ionotropic, kainate 1 (Rattus norvegicus) (UniProt P22756); experiment: Displacement of [3H]-NF608 from rat GluK1 assessed as percent of radioligand binding at 10 uM relative to control
[9] = target: Glutamate receptor ionotropic, kainate 1 (Rattus norvegicus, UniProt P22756); experiment: Displacement of [3H]-NF608 from rat GluK1
[10] = target: Glutamate receptor ionotropic, kainate 3 (Rattus norvegicus, UniProt P42264); experiment: Displacement of [3H]-KA from rat GluK3
[11] = target: Glutamate receptor ionotropic, kainate 2 (Rattus norvegicus, UniProt P42260); experiment: Displacement of [3H]-KA from rat GluK2
[12] = target: Glutamate NMDA receptor (Rattus norvegicus) (UniProt P35439+Q00959+Q00960+Q00961+Q62645+Q8VHN2+Q9R1M7); experiment: Displacement of [3H]CGP39653 from NMDA receptor in rat cortical synaptosomes assessed as remaining activity at 10 uM incubated for 60 mins by Topcount microplate scintillation counting method relative to control; type: subcellular; conditions: Cortex, Synaptosome
[13] = Displacement of [3H]-KA from KA in rat cortical synaptosomes incubated for 60 mins by TopCount microplate scintillation counting method; type: subcellular, Cortex, Synaptosome
[14] = target: Glutamate receptor 4 (Rattus norvegicus) (UniProt P19493); experiment: Displacement of [3H]-AMPA from AMPA in rat cortical synaptosomes assessed as remaining activity at 10 uM incubated for 30 mins by TopCount microplate scintillation counting method relative to control; type: subcellular; conditions: Cortex, Synaptosome
[15] = Selectivity ratio of Ki for displacement of [3H]-KA from rat GluK3 to Ki for displacement of [3H]-kainate from mouse GluK5
[16] = Selectivity ratio of Ki for displacement of [3H]-NF608 from rat GluK1 to Ki for displacement of [3H]-kainate from mouse GluK5
[17] = Selectivity ratio of Ki for displacement of [3H]-KA from rat GluK2 to Ki for displacement of [3H]-kainate from mouse GluK5
[18] = Binding affinity to KA receptor in rat synaptosomes; type: subcellular, Synaptosome
Neuron = experiment: Agonist activity at GluK2/K5 in mouse hippocampal neurons assessed as change in holding current at 10 uM by electrophysiology; type: cell-based; conditions: filed as agonist
[19] = target: T3, Glutamate receptor ionotropic, kainate 5 (Mus musculus) (UniProt Q61626); experiment: Displacement of [3H]-kainate from mouse GluK5 expressed in Sf9 cell membrane assessed as remaining activity at 10 uM incubated for 2 hrs by scintillation counting method relative to control; type: cell membranes
T3 sequence (whole entry): T2 sequence (Q61626 whole entry)

Rattus norvegicus = organism: Rattus norvegicus; experiment: Displacement of [3H]-KA from KA in rat cortical synaptosomes assessed as remaining activity at 10 uM incubated for 60 mins by TopCount microplate scintillation counting method relative to control; type: subcellular; conditions: Cortex, Synaptosome
Glutamate NMDA receptor = experiment: Displacement of [3H]CGP39653 from NMDA receptor in rat cortical synaptosomes incubated for 60 mins by Topcount microplate scintillation counting method; type: subcellular, Cortex, Synaptosome
Glutamate receptor 4 [20] = target: T1, Glutamate receptor 4; experiment: Displacement of [3H]-AMPA from AMPA in rat cortical synaptosomes incubated for 30 mins by TopCount microplate scintillation counting method; type: subcellular, Cortex, Synaptosome

Chain of Glutamate receptor ionotropic, kainate 3 (Rattus norvegicus) (P42264 whole entry): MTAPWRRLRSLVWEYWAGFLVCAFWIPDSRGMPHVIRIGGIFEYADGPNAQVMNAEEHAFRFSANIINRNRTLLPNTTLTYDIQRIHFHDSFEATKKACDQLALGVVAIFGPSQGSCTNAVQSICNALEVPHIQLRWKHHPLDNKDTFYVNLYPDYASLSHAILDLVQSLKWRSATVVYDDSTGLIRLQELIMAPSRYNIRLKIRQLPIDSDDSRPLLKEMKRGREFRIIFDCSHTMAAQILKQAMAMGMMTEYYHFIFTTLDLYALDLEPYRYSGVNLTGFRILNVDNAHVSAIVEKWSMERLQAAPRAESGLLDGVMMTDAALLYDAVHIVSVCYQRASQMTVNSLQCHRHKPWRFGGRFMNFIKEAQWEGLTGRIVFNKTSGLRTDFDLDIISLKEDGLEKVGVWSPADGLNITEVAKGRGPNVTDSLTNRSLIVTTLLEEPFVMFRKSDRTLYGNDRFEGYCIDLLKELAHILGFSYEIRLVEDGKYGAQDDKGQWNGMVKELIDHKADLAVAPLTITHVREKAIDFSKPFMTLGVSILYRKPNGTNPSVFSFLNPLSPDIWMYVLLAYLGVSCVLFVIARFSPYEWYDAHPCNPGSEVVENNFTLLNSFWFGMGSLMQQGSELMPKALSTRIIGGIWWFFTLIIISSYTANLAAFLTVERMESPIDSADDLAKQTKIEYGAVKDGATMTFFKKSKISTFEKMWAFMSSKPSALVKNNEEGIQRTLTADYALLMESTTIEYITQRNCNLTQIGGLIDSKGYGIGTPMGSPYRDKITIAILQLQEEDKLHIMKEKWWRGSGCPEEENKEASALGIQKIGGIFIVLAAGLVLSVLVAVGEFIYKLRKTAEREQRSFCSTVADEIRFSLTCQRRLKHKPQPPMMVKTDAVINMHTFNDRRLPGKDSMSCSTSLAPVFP
Chain of Glutamate receptor ionotropic, kainate 3 (P42264 whole entry): as above
Chain of Glutamate receptor ionotropic, kainate 1 (P22756 whole entry): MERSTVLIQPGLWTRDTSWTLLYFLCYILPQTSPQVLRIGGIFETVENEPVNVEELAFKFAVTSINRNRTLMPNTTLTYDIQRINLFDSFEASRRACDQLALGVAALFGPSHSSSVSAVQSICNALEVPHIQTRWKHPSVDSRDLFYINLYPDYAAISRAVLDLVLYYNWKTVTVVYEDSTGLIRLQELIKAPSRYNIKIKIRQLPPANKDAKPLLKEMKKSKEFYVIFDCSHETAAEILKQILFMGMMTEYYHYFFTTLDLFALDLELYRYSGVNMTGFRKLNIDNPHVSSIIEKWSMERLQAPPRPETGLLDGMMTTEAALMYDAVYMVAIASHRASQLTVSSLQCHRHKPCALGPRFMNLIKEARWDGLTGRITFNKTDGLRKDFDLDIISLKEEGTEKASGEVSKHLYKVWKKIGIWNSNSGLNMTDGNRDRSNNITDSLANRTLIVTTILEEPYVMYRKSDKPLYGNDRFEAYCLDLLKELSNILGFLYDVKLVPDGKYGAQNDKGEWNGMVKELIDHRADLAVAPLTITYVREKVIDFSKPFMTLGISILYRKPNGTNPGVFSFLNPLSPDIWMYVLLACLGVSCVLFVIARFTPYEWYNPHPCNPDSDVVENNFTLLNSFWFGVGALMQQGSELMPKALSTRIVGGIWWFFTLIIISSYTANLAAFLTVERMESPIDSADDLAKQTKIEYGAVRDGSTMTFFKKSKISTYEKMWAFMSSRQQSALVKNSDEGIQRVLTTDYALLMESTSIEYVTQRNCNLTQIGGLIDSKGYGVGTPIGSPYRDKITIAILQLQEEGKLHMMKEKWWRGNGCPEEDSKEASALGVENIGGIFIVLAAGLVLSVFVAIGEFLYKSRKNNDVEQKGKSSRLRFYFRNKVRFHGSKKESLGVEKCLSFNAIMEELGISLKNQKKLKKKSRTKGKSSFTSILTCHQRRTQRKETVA
Chain of Glutamate receptor ionotropic, kainate 1 (Rattus norvegicus) (P22756 whole entry): as above
T1 sequence (P19493 whole entry): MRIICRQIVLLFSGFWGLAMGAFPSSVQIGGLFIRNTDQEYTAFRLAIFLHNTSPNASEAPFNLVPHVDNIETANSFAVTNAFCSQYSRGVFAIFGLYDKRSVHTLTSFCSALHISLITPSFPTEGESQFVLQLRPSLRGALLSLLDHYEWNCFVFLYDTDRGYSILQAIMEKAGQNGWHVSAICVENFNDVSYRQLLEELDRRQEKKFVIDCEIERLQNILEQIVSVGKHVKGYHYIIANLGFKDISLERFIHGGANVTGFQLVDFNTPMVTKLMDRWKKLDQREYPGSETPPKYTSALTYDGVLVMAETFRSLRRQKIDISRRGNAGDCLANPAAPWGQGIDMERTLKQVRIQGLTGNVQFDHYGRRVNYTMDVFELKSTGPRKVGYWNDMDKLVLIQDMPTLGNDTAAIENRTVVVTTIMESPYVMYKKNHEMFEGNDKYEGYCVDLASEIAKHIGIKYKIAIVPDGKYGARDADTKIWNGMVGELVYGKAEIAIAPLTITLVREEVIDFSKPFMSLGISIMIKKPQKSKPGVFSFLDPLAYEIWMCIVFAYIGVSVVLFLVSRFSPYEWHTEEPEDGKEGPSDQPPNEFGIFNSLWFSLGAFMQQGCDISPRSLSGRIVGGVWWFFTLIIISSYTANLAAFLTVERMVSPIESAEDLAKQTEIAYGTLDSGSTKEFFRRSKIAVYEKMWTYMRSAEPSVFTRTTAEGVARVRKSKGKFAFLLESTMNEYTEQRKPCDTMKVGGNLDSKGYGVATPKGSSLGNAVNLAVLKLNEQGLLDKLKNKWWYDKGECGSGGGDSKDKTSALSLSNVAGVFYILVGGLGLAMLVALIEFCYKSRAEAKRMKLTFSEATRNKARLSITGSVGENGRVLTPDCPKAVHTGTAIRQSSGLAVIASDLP
Chain of Glutamate receptor 4 (Rattus norvegicus) (P19493 whole entry): as above
Chain of Glutamate receptor ionotropic, kainate 2 (Rattus norvegicus) (P42260 whole entry): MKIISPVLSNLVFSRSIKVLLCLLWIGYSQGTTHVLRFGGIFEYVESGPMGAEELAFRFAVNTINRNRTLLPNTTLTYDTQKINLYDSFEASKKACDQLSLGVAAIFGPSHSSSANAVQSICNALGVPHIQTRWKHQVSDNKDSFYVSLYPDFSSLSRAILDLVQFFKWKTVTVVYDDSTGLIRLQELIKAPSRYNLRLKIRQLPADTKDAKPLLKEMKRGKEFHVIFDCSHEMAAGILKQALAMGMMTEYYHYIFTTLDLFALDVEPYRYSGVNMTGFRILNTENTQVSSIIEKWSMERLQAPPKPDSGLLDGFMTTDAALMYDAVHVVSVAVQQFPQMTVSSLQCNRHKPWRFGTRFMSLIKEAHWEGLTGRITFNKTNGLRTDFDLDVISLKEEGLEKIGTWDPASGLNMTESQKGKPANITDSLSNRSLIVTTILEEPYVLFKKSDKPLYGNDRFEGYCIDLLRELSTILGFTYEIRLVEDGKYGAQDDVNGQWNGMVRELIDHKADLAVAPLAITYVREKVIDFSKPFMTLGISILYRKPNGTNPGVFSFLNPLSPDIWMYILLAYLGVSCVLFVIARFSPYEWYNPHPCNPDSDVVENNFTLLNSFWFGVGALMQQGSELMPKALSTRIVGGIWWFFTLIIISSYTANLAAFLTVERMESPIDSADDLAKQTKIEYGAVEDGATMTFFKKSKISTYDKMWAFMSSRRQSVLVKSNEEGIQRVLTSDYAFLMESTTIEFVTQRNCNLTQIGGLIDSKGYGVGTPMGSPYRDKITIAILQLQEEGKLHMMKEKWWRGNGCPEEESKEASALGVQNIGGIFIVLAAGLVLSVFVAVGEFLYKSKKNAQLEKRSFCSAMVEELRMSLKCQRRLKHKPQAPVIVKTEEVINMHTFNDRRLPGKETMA
Chain of Glutamate receptor ionotropic, kainate 2 (P42260 whole entry): as above

**Q.** Which IC50 [1] does the source give for `C/C(=C/CC[C@@H](C)C(=O)O)[C@H]1CN[C@H](C(=O)O)[C@H]1CC(=O)O` here?
**A.** 0.009 µM

**Q.** What about the IC50 (Glutamate receptor 4 [2]) of the same molecule?
**A.** 3.6 µM

**Q.** Which IC50 [1] does the source give for `C[C@H](CCC[C@@H](C)[C@H]1CN[C@H](C(=O)O)[C@H]1CC(=O)O)C(=O)O` here?
**A.** 27 µM

**Q.** What about the IC50 (Glutamate receptor 4 [2]) of the same molecule?
**A.** > 100 µM

**Q.** For `C=C(C)[C@H]1CN[C@H](C(=O)O)[C@H]1CC(=O)O` [KAINIC ACID], which IC50 [3] is on record?
**A.** 0.012 µM

**Q.** And the IC50 (Glutamate receptor 4 [4])?
**A.** 1.9 µM

**Q.** For `O=C(O)C[C@@H]1[C@@H](C(=O)O)NC[C@@H]1c1ccccc1O`, which IC50 [3] is on record?
**A.** 0.058 µM

**Q.** What about the IC50 (Glutamate receptor 4 [4]) of the same molecule?
**A.** 0.13 µM

**Q.** Which results are given for `O=C(O)C[C@@H]1[C@@H](C(=O)O)NC[C@@H]1n1nncc1-c1cccc(F)c1`?
**A.** Activity [5]: 76%; Ki [6]: 1.76 µM; Activity [7]: 58%; Activity [8]: 60%

**Q.** For `O=C(O)C[C@@H]1[C@@H](C(=O)O)NC[C@@H]1n1nncc1-c1ccccn1`, which Ki [6] is on record?
**A.** 0.258 µM

**Q.** And the Ki [9]?
**A.** 11.5 µM

**Q.** And the Ki [10]?
**A.** 3.75 µM

**Q.** What about the Ki [11] of the same molecule?
**A.** 7.76 µM

**Q.** With `CC(CCc1cnnn1[C@H]1CN[C@H](C(=O)O)[C@H]1CC(=O)O)C(=O)O` (some centres not stated) as the molecule, how does the Activity [12] read?
**A.** 102%

**Q.** What about the IC50 [13] of the same molecule?
**A.** 1.73 µM

**Q.** And the Ki [6]?
**A.** 0.42 µM

**Q.** And the Activity [14]?
**A.** 73%

**Q.** And the Ratio Ki [15]?
**A.** 14

**Q.** What about the Ki [9] of the same molecule?
**A.** 11.7 µM

**Q.** And the Ratio Ki [16]?
**A.** 14

**Q.** What about the Ki [10] of the same molecule?
**A.** 5.9 µM

**Q.** And the Ratio Ki [17]?
**A.** 14

**Q.** And the Ki [11]?
**A.** 8.66 µM

**Q.** Which Activity [12] does the source give for `O=C(O)C[C@@H]1[C@@H](C(=O)O)NC[C@@H]1n1nncc1CCc1ccccc1` here?
**A.** 98%

**Q.** And the Activity [5]?
**A.** 97%

**Q.** What about the IC50 [13] of the same molecule?
**A.** 35 µM

**Q.** And the Ki [6]?
**A.** 5.57 µM

**Q.** What about the Activity [14] of the same molecule?
**A.** 98%

**Q.** And the Activity [7]?
**A.** 90%

**Q.** And the Activity [8]?
**A.** 94%

**Q.** Which IC50 [18] does the source give for `Nc1nc([C@H]2CN[C@H](C(=O)O)[C@H]2CC(=O)O)cs1` here?
**A.** 0.005 µM

**Q.** With `C/C(=C/C=C/[C@H](C)C(=O)O)[C@H]1CN[C@H](C(=O)O)[C@H]1CC(=O)O` as the molecule, how does the IC50 [1] read?
**A.** 0.028 µM

**Q.** What about the IC50 (Glutamate receptor 4 [2]) of the same molecule?
**A.** 5.7 µM

**Q.** What does the source list for `C/C(=C\C=C/[C@@H](C)C(=O)O)[C@H]1CN[C@H](C(=O)O)[C@H]1CC(=O)O`?
**A.** IC50 [1]: 1.4 µM; Activity (Neuron): 2940 pA; IC50 (Glutamate receptor 4 [2]): 32 µM

**Q.** Which Activity [19] does the source give for `NCc1cnnn1[C@H]1CN[C@H](C(=O)O)[C@H]1CC(=O)O` here?
**A.** 85%

**Q.** And the Activity [12]?
**A.** 92%

**Q.** And the Activity [5]?
**A.** 79%

**Q.** And the Activity [14]?
**A.** 100%

**Q.** What about the Activity [7] of the same molecule?
**A.** 81%

**Q.** What about the Activity (Rattus norvegicus) of the same molecule?
**A.** 76%

**Q.** And the Activity [8]?
**A.** 95%

**Q.** For `O=C(O)C[C@@H]1[C@@H](C(=O)O)NC[C@@H]1n1ccnn1`, which IC50 [13] is on record?
**A.** 1.3 µM

**Q.** And the Ki [9]?
**A.** 3.3 µM

**Q.** What about the Ki (Glutamate NMDA receptor) of the same molecule?
**A.** > 100 µM

**Q.** What about the IC50 (Glutamate receptor 4 [20]) of the same molecule?
**A.** 9.5 µM

**Q.** And the Ki [10]?
**A.** 0.28 µM

**Q.** And the Ki [11]?
**A.** 2.6 µM

**Q.** What does the source list for `C/C(=C/C=C\[C@@H](C)C(=O)O)[C@H]1CN[C@H](C(=O)O)[C@H]1CC(=O)O`?
**A.** IC50 [1]: 0.028 µM; IC50 (Glutamate receptor 4 [2]): 17 µM

**Q.** Which results are given for `O=C(O)C[C@@H]1[C@@H](C(=O)O)NC[C@@H]1n1nncc1-c1ccc(F)cc1F`?
**A.** Activity [5]: 73%; Ki [6]: 5.35 µM; Activity [7]: 90%; Activity [8]: 96%

**Q.** Which results are given for `O=C(O)C[C@@H]1[C@@H](C(=O)O)NC[C@@H]1n1nncc1CN1CCS(=O)(=O)CC1`?
**A.** Activity [19]: 94%; Activity [5]: 80%; Activity [7]: 91%; Activity [8]: 97%
